Earlier results on one substance are cited in US20030224036A1, “Hla class I a2 tumor associated antigen peptides and vaccine compositions” (priority 1999, published 2003).

This series relates to PBMC of cervical cancer patients.

“aKXVAAWTLKAAa-NH2 [PADRE, a=D-alanine, X=cyclohexylalanine]”: the responding patients (95% interval 10-65%) is recorded as 33%. Also, the safety in patients entry (recurrent or residual cervical carcinoma) is listed as “favorable safety profile”.
